# Reference: PMC6792352, “Limited Chemical Structural Diversity Found to Modulate Thyroid Hormone Receptor in the Tox21 Chemical Library” (Environmental Health Perspectives, 2019)
# Counter-ions that a name gives are not always drawn. Positions of bridges follow the written chain, without caps; N, C: chain ends. Residues, ends and D or L forms follow the SMILES beside them.
# Test: in vitro
# Conditions: rat, gh3-tre-luc cells, AC50 (uM) modified / 1000
row,Structure (SMILES),CC50 at 24 h
1,CCCN(C1CCN(C(=O)C2CCNCC2)CC1)[C@@H]1CCc2ccc(OC)cc2C1 [PharmaGSID_48509],69.1 µM
2,Nc1ccc(S(=O)(=O)Nc2ccnn2-c2ccccc2)cc1 [Sulfaphenazole],> 20 µM
3,O=C(NN1CCCC1)NS(=O)(=O)c1ccc(Cl)cc1 [Glyclopyramide],> 50 µM
4,CC(=O)OCc1ccccc1 [Benzyl acetate],> 90 µM
5,CCCCCCCCCCCCCCCC(=O)OC[C@H](COP(=O)([O-])OCC[N+](C)(C)C)OC(=O)CCCCCCCCCCCCCCC [Colfosceril palmitate],> 50 µM
6,CCCCNc1ccccc1 [N-Butylaniline],> 90 µM
7,C=CC(=O)OCC(COC(=O)C=C)(COC(=O)C=C)COC(=O)C=C [Pentaerythritol tetraacrylate],3 µM
8,Nc1ncnc2c1ncn2[C@@H]1O[C@H](COP(=O)(O)OP(=O)(O)OP(=O)(O)O)[C@@H](O)[C@H]1O [Adenosine triphosphate],> 50 µM
9,CC(C)CCCCCCCCCCCCCCC(=O)O [Isooctadecanoic acid],> 90 µM
10,O=C(c1ccccc1)C(O)c1ccccc1 (stereo not shown) [Benzoin],> 90 µM
11,CCCOC(=O)c1ccc(N)cc1 [Risocaine],> 50 µM
12,OCCC(F)(F)C(F)(F)C(F)(F)C(F)(F)C(F)(F)C(F)(F)C(F)(F)C(F)(F)F [8:2 Fluorotelomer alcohol],> 90 µM
13,COc1cc(Cl)ccc1Oc1ccc(Cl)cc1Cl [Methyl triclosan],60.4 µM
14,O=C(COCCOCCOCC(=O)Nc1c(I)cc(I)c(C(=O)O)c1I)Nc1c(I)cc(I)c(C(=O)O)c1I [Biliscopin],> 50 µM
15,CC(C)OC=O [Isopropyl formate],> 100 µM
16,CCOC(C)=O [Ethyl acetate],> 90 µM
17,"COc1cc(OC)c2ccc(=O)oc2c1 [5,7-Dimethoxy-2H-chromen-2-one]",> 90 µM
18,"Oc1c(Cl)ccc(Cl)c1Cl [2,3,6-Trichlorophenol]",> 90 µM
19,NCCCC[C@H](NC(=O)[C@@H]1CCCN1C(=O)[C@@H]1CSSC[C@H](N)C(=O)N[C@@H](Cc2ccccc2)C(=O)N[C@@H](Cc2ccccc2)C(=O)N[C@@H](CCC(N)=O)C(=O)N[C@@H](CC(N)=O)C(=O)N1)C(=O)NCC(N)=O [Felypressin] (H-CFFQNCPKG-NH2; disulfide 1-6),> 50 µM
20,O=C1c2cccc(O)c2C(=O)c2c(O)cc(CO)cc21 [Aloe-emodin],> 90 µM
21,CCOC(=O)C=CC(=O)O [4-Ethoxy-4-oxobut-2-enoic acid],> 90 µM
22,CCCCCCCC/C=C\CCCCCCCCCCCC(=O)O [(13Z)-Docos-13-enoic acid],> 90 µM
23,CC1(C)CCC(C)(C)c2cc(NC(=O)c3ccc(C(=O)O)cc3)ccc21 [Tamibarotene],15.4 µM
24,O=C(O)COc1ccc(CCNS(=O)(=O)c2ccccc2)s1 [Linotroban],> 50 µM
25,O=C(O)CCn1c2c(c3ccccc31)C[C@H](NS(=O)(=O)c1ccc(F)cc1)CC2 [Ramatroban],> 50 µM

row,Structure (SMILES),CC50 at 24 h
1,Cc1nc2n(c(=O)c1CCN1CCC(c3noc4cc(F)ccc34)CC1)CCCC2 [Risperidone],> 50 µM
2,N#CCC(=O)NN [Cyacetacide],> 50 µM
3,"NCc1cccc(CN)c1 [1,3-Benzenedimethanamine]",> 90 µM
4,O=C(O)Cc1c(Cl)ccc(Cl)c1Cl [Chlorfenac],> 90 µM
5,CC(=O)N(CC(O)CO)c1c(I)c(C(=O)NCC(O)CO)c(I)c(C(=O)NCC(O)CO)c1I (mixture of isomers) [Iohexol],> 50 µM
6,CCCCCCCC(=O)Cl [Caprylyl chloride],> 90 µM
7,CCCCCCCCCCCCCCCCOP(=O)([O-])OCC[N+](C)(C)C [Miltefosine],> 50 µM
8,CCO [Ethanol],> 100 µM
9,C1COCCN1 [Morpholine],> 100 µM
10,CC(C)(C)C(=O)OCOC(=O)[C@@H]1N2C(=O)C[C@H]2S(=O)(=O)C1(C)C [Pivoxil Sulbactam],> 50 µM
11,"C1CN(CCOCCN2CCOCC2)CCO1 [4,4'-(Oxydiethylene)bis(morpholine)]",> 90 µM
12,CS(=O)(=O)Nc1cc2occ(NC=O)c(=O)c2cc1Oc1ccccc1 [Iguratimod],> 50 µM
13,O=C1CCCC(=O)O1 [Glutaric anhydride],> 90 µM
14,O=C(O)CCCCCCCCCCC(=O)O [Dodecanedioic acid],> 90 µM
15,Cc1ccc(O)c([N+](=O)[O-])c1 [4-Methyl-2-nitrophenol],> 90 µM
16,CCCc1c(OCCCOc2ccc(OCC(=O)O)cc2)ccc(C(C)=O)c1O [4-[3-(4-Acetyl-3-hydroxy-2-propylphenoxy)propoxy]phenoxy-acetic acid],> 90 µM
17,Cc1cc(=O)nc(C(C)C)[nH]1 [2-Isopropyl-6-methyl-4-pyrimidone],> 90 µM
18,Cc1ccc(C(C)C)cc1 [p-Cymene],> 90 µM
19,CC(=O)OCC(=O)[C@@]1(OC(C)=O)[C@@H](C)C[C@H]2[C@@H]3C[C@H](F)C4=CC(=O)C=C[C@]4(C)[C@@]3(F)[C@@H](O)C[C@@]21C [Diflorasone diacetate],> 50 µM
20,Cc1ccc2nc(N)[nH]c(=O)c2c1Sc1ccncc1 [Nolatrexed dihydrochloride],> 50 µM
21,O=C(N[C@H]1N=C(c2ccccc2F)c2cccc3c2N(CC3)C1=O)c1cc2ccccc2[nH]1 [Pranazepide],> 50 µM
22,COC(=O)C(C)Oc1ccc(Oc2ncc(C(F)(F)F)cc2Cl)cc1 (stereo not shown) [Haloxyfop-methyl],> 90 µM
23,COc1cccc2c1[C@@H]1CN(CCCCn3c(=O)[nH]c4c(sc5ncc(-c6ccccc6)nc54)c3=O)C[C@@H]1CO2 [Fiduxosin hydrochloride],13.1 µM
24,O=C(O)CCC(=O)c1ccc(-c2ccccc2)cc1 [Fenbufen],> 20 µM
25,CCN(CC)CCOc1ccc(Cc2ccccc2)cc1 [Tesmilifene],10.9 µM

row,Structure (SMILES),CC50 at 24 h
1,"NC(=O)C(Cl)(Cl)Cl [2,2,2-Trichloroacetamide]",> 90 µM
2,CCCCCCCCCC[N+](C)(C)CCCCCCCCCC [Didecyldimethylammonium chloride],10.7 µM
3,CC(C)C(=O)OC/C=C/c1ccccc1 [3-Phenylprop-2-en-1-yl 2-methylpropanoate],> 90 µM
4,Nc1ccc(C(=O)O)c(O)c1 [Sodium 4-aminosalicylate],> 50 µM
5,CC(C)OC(C)C [Isopropyl ether],> 100 µM
6,COC(=O)CCC(=O)CN [Methyl aminolevulinate hydrochloride],> 50 µM
7,"C1CSCCS1 [1,4-Dithiane]",> 90 µM
8,CC1(C)CC/C(=C\c2ccc(Cl)cc2)C1(O)Cn1cncn1 (stereo not shown) [Triticonazole],> 90 µM
9,OCCN1CCN(CCCN2c3ccccc3Sc3ccc(C(F)(F)F)cc32)CC1 [Fluphenazine],5.76 µM
10,OCC(O)[C@@H](O)[C@H](O)[C@H](O)CO[C@H]1O[C@H](CO)[C@@H](O)[C@H](O)[C@H]1O (stereo partly shown) [Isomalt],> 90 µM
11,CC(=O)C(C)O (stereo not shown) [Acetoin],> 90 µM
12,NC(=O)Cc1cccc2ccccc12 [1-Naphthaleneacetamide],> 90 µM
13,C[C@]12CC[C@@H]3c4ccc(O)cc4CC[C@H]3[C@@H]1CC[C@@H]2OP(=O)(O)O [Estradiol phosphate],> 50 µM
14,O=[N+]([O-])NC1=NCCN1Cc1ccc(Cl)nc1 [Imidacloprid],> 90 µM
15,CCCCCCNC(=O)n1cc(F)c(=O)[nH]c1=O [Carmofur],8.69 µM
16,O=C1c2ccccc2S(=O)(=O)N1CCCCN1CCN(c2ncccn2)CC1 [Ipsapirone],> 50 µM
17,Cc1c(C)c2c(c(C)c1O)CC[C@@](C)(CCC[C@H](C)CCC[C@H](C)CCCC(C)C)O2 [alpha-Vitamin E],> 50 µM
18,NC(=O)CN1CC(O)CC1=O (stereo not shown) [Oxiracetam],> 50 µM
19,"CN1C(=O)N(C)C(O)C1O (stereo not shown) [4,5-Dihydroxy-1,3-dimethylimidazolidin-2-one]",> 90 µM
20,Oc1ccc(Cc2ccccc2O)cc1 [2-(4-Hydroxybenzyl)phenol],> 90 µM
21,"O=[N+]([O-])c1cc(C(F)(F)F)cc([N+](=O)[O-])c1Cl [2-Chloro-1,3-dinitro-5-(trifluoromethyl)benzene]",> 90 µM
22,CCCCN(N=O)C(=N)N[N+](=O)[O-] [N-Butyl-N'-nitro-N-nitrosoguanidine],56.4 µM
23,O=C(/C=C/c1ccccc1)OCCCc1ccccc1 [3-Phenylpropyl cinnamate],> 90 µM
24,C[C@](N)(Cc1ccc(O)cc1)C(=O)O [Metyrosine],> 50 µM

# Same assay, conditions: rat, gh3-tre-luc cells, AC50 (uM) modified / 1000, Tox21_110001=Tox21_200984; viability, 1 nM T3 present, 24 h
row,Structure (SMILES),CC50 at 24 h
1,C=CC=O [Acrolein],> 90 µM

# Same assay, conditions: rat, gh3-tre-luc cells, AC50 (uM) modified / 1000, Tox21_110001=Tox21_201048; viability, 1 nM T3 present, 24 h
row,Structure (SMILES),CC50 at 24 h
1,Cc1c[nH]cn1 [4-Methylimidazole],> 90 µM

# Same assay, conditions: rat, gh3-tre-luc cells, AC50 (uM) modified / 1000, Tox21_110001=Tox21_201726; viability, 1 nM T3 present, 24 h
row,Structure (SMILES),CC50 at 24 h
1,ClCCBr [1-Chloro-2-bromoethane],> 90 µM

# Same assay, conditions: rat, gh3-tre-luc cells, AC50 (uM) modified / 1000, Tox21_110001=Tox21_201952; viability, 1 nM T3 present, 24 h
row,Structure (SMILES),CC50 at 24 h
1,CC(O)CN(CC(C)O)CC(C)O (stereo not shown) [Triisopropanolamine],> 90 µM

# Same assay, conditions: rat, gh3-tre-luc cells, AC50 (uM) modified / 1000, Tox21_110001=Tox21_202245; viability, 1 nM T3 present, 24 h
row,Structure (SMILES),CC50 at 24 h
1,"OCCCCO [1,4-Butanediol]",> 90 µM

# Same assay, conditions: rat, gh3-tre-luc cells, AC50 (uM) modified / 1000, Tox21_110001=Tox21_300586; viability, 1 nM T3 present, 24 h
row,Structure (SMILES),CC50 at 24 h
1,ClC1=C(Cl)[C@]2(Cl)C3C(Cl)C(Cl)CC3[C@@]1(Cl)C2(Cl)Cl (stereo partly shown) [Chlordane],25.5 µM

# Same assay, conditions: rat, gh3-tre-luc cells, AC50 (uM) modified / 1000, Tox21_110001=Tox21_301854; viability, 1 nM T3 present, 24 h
row,Structure (SMILES),CC50 at 24 h
1,CCOC(=O)Nc1cccc(OC(=O)Nc2ccccc2)c1 [Desmedipham],> 90 µM

# Same assay, conditions: rat, gh3-tre-luc cells, AC50 (uM) modified / 1000, Tox21_110001=Tox21_400051; viability, 1 nM T3 present, 24 h
row,Structure (SMILES),CC50 at 24 h
1,O=S(=O)(O)C(F)(F)C(F)(F)C(F)(F)C(F)(F)F [Potassium perfluorobutanesulfonate],> 100 µM
